Data set [1] can be described thus: in vitro. Particulars: human, hNCI-H716 colorectal adenocarcinoma cells.
Data set [2] concerns GLP-1 secretion from mSTC-1 cells. As to the kind of experiment: Concentration-response curve. In kind it is cell-based, mouse.
In data set [3] the test system is GLP-1 release from hNCI-H716 colorectal adenocarcinoma cell line. The data set can be described thus: CRC EC50 in GLP-1 release from hNCI-H716 cells. Conditions: Homo sapiens, read-out: hNCI-H716 GLP1 Sec CRC EC50. In kind it is cell-based.
The test system of data set [4] is GLP-1 secretion from mouse secretin tumor (mSTC-1) intestinal enteroendocrine cells. As to the kind of experiment: ELISA primary assay: GLP-1 secretion from mSTC-1 cells, percent stimulation. In kind it is cell-based. Particulars: for mSTC-1 GLP1 Sec %Stim@2 μM: 2 μM test compound; for mSTC-1 GLP1 Sec %Stim@2 μM / mSTC-1 GLP1 Sec %Stim@20 μM: mSTC-1 cells, ELISA; for mSTC-1 GLP1 Sec %Stim@20 μM: 20 μM test compound; for activation at 20 µM: Mus musculus, read-out: mSTC-1 GLP1 Sec %Stim@20 μM.

The nature of data set [5]: in vitro. Conditions: mouse, mSTC-1 cells.
The mark [6] stands for this setting: Mus musculus, read-out: mSTC-1 GLP1 Sec CRC EC50, mSTC-1 cells, concentration-response curve.
Where [7] appears, read: read-out: mSTC-1 GLP1 Sec CRC EC50, mSTC-1 cells, concentration-response curve.

The structures appear in SMILES notation. Read-outs that look alike come from different tables or passages of the source.

For the compound `COc1ccc2c(c1)[C@@H](NC(=O)OCc1ccccc1)[C@H](C)[C@@H](c1ccccc1)N2` [Compound 5a, benzyl (2S,3R,4S)-6-methoxy-3-methyl-2-phenyl-1,2,3,4-tetrahydroquinolin-4-ylcarbamate], the EC50 in the data set “in vitro [1]” is above 40 µM; in data set [2] (setting [6]) it was below 10 µM; in data set [2] (setting [7]) it was 5.3 µM; in data set [3], above 40 µM; in the data set “in vitro [5]”, above 40 µM. Further, the “mSTC-1 GLP1 Sec %Stim@2 μM” value in data set [4] is reported as 2%. Also, in data set [4], the “mSTC-1 GLP1 Sec %Stim@20 μM” value is 68%.

Take `COc1ccc2c(c1)[C@@H](NC(=O)OCc1ccccc1)[C@H](C)[C@@H](C(C)C)N2` [Compound 5b, Benzyl ((2R,3R,4S)-2-isopropyl-6-methoxy-3-methyl-1,2,3,4-tetrahydroquinolin-4-yl)carbamate]: the EC50 in the data set “in vitro [1]” was above 40 µM; in data set [2] (setting [6]), 10.8 µM; in data set [3], above 40 µM; in “in vitro [5]”, above 40 µM. For the same compound, the “mSTC-1 GLP1 Sec %Stim@2 μM” value in data set [4] worked out at 0%. Besides, the “mSTC-1 GLP1 Sec %Stim@20 μM” value in data set [4] worked out at 98%.

Regarding `CC[C@H]1Nc2ccc(NC(=O)OC(C)(C)C)cc2[C@@H](NC(=O)OCc2ccccc2)[C@@H]1C` [Compound 5e, Benzyl tert-butyl ((2R,3R,4S)-2-ethyl-3-methyl-1,2,3,4-tetrahydroquinoline-4,6-diyl)dicarbamate], the activation at 20 µM in data set [4] was determined as 0%.

For `COc1ccc2c(c1)[C@@H](NC(=O)OCc1ccccc1)[C@H](C)[C@@H](c1cccnc1)N2` [Compound 5f, Benzyl (2S,3R,4S)-6-methoxy-3-methyl-2-(pyridin-3-yl)-1,2,3,4-tetrahydroquinolin-4-ylcarbamate], in data set [4], the “mSTC-1 GLP1 Sec %Stim@2 μM” value is 0% and the “mSTC-1 GLP1 Sec %Stim@20 μM” value worked out at 22%.

On to `COc1ccc2c(c1)[C@@H](NC(=O)OCc1ccccc1)[C@H](C)[C@@H](c1ccccc1)N2Cc1cccc(F)c1` [Compound 6a, Benzyl(2S,3S,4S)-1-(3-fluorobenzyl)-6-methoxy-3-methyl-2phenyl-1,2,3,4-tetrahydroquinolin-4-ylcarbamate], for which the EC50 (in “in vitro [1]”; in data set [2] (setting [6]); in data set [3]; in the data set “in vitro [5]”) was above 40 µM each time. Further, the “mSTC-1 GLP1 Sec %Stim@2 μM” value in data set [4] stood at 8%. Moreover, the “mSTC-1 GLP1 Sec %Stim@20 μM” value in data set [4] is given as 40%.

In the case of `COc1ccc2c(c1)[C@@H](NC(=O)OCc1ccccc1)[C@H](C)[C@@H](c1ccccc1)N2Cc1ccccn1` [Compound 6c, Benzyl (2S,3S,4S)-6-methoxy-3-methyl-2-phenyl-1-(pyridin-2-ylmethyl)-1,2,3,4-tetrahydroquinolin-4-ylcarbamate], the activation at 20 µM in data set [4] is 0%.

In the case of `COc1ccc2c(c1)[C@@H](NC(=O)OCc1ccccc1)[C@H](C)[C@@H](c1ccccc1)N2C(=O)NC(C)C` [Compound 6g, Benzyl ((2S,3S,4S)-1-(isopropylcarbamoyl)-6-methoxy-3-methyl-2-phenyl-1,2,3,4-tetrahydroquinolin-4-yl)carbamate], the activation at 20 µM in data set [4] was found to be 0%.

Consider `COc1ccc2c(c1)[C@@H](NCc1nccs1)[C@H](C)[C@@H](c1ccccc1)N2C(=O)NC(C)C` [Compound 8d, (2S,3S,4S)-N-Isopropyl-6-methoxy-3-methyl-2-phenyl-4-((thiazol-2-ylmethyl)amino)-3,4-dihydroquinoline-1(2H)-carboxamide], for which the EC50 (in the data set “in vitro [1]”; in data set [2] (setting [6]); in data set [3]; in “in vitro [5]”) was above 40 µM throughout. Besides, the “mSTC-1 GLP1 Sec %Stim@2 μM” value in data set [4] is 0%. The “mSTC-1 GLP1 Sec %Stim@20 μM” value in data set [4] is 28%.

On to `COc1ccc2c(c1)[C@@H](NCc1ccccn1)[C@H](C)[C@@H](c1ccccc1)N2C(=O)NC(C)C` [Compound 8e, (2S,3S,4S)-N-isopropyl-6-methoxy-3-methyl-2-phenyl-4-((pyridin-2-ylmethyl)amino)-3,4-dihydroquinoline-1(2H)-carboxamide], for which the activation at 20 µM in data set [4] was determined as 0%.

As for `COc1ccc2c(c1)[C@@H](NC(=O)c1c(C)noc1C)[C@H](C)[C@@H](c1ccccc1)N2C(=O)NC(C)C` [Compound 8f, N-((2S,3S,4S)-1-(Isopropylcarbamoyl)-6-methoxy-3-methyl-2-phenyl-1,2,3,4-tetrahydroquinolin-4-yl)-3,5-dimethylisoxazole-4-carboxamide], the activation at 20 µM in data set [4] amounted to 0%.

For `COc1ccc2c(c1)[C@@H](NC(C)=O)[C@H](C)[C@@H](c1ccccc1)N2C(=O)Nc1ccc(C(F)(F)F)cc1` [Compound 8i, (2S,3S,4S)-4-Acetamido-6-methoxy-3-methyl-2-phenyl-N-(4-(trifluoromethyl)phenyl)-3,4-dihydroquinoline-1(2H)-carboxamide], the activation at 20 µM in data set [4] turned out to be 0%.

Take `COc1ccc2c(c1)[C@@H](NC(=O)c1c(C)noc1C)[C@H](C)[C@@H](c1ccccc1)N2Cc1cccc(F)c1` [Compound 8j, N-((2S,3S,4S)-1-(3-Fluorobenzyl)-6-methoxy-3-methyl-2-phenyl-1,2,3,4-tetrahydroquinolin-4-yl)-3,5-dimethylisoxazole-4-carboxamide]: the activation at 20 µM in data set [4] is 0%.

In the case of `COc1ccc2c(c1)[C@@H](NS(C)(=O)=O)[C@H](C)[C@@H](c1ccccc1)N2Cc1cccc(F)c1` [Compound 8k, N-((2S,3R,4S)-1-(3-Fluorobenzyl)-6-methoxy-3-methyl-2-phenyl-1,2,3,4-tetrahydroquinolin-4-yl)methanesulfonamide], the EC50 in “in vitro [1]” was above 40 µM; in data set [2] (setting [6]) it was below 10 µM; in data set [2] (setting [7]), 8.3 µM; in data set [3] it was above 40 µM; in “in vitro [5]”, above 40 µM. The “mSTC-1 GLP1 Sec %Stim@2 μM” value in data set [4] is reported as 0%. Further, the “mSTC-1 GLP1 Sec %Stim@20 μM” value in data set [4] was 53%.

`CC[C@H]1Nc2ccc(OC)cc2[C@@H](NS(C)(=O)=O)[C@@H]1C` [Compound 8l, N-((2R,3R,4S)-2-Ethyl-6-methoxy-3-methyl-1,2,3,4-tetrahydroquinolin-4-yl)methanesulfonamide]: the activation at 20 µM in data set [4] is 0%.

Regarding `COc1ccc2c(c1)[C@@H](NS(C)(=O)=O)[C@H](C)[C@@H](C(C)C)N2` [Compound 8m, N-((2R,3R,4S)-2-Isopropyl-6-methoxy-3-methyl-1,2,3,4-tetrahydroquinolin-4-yl)methanesulfonamide], in data set [4], the activation at 20 µM turned out to be 0%.

With `CC[C@H]1Nc2ccc(OC)cc2[C@@H](NCc2nccs2)[C@@H]1C` [Compound 8n, (2R,3R,4S)-2-Ethyl-6-methoxy-3-methyl-N-(thiazol-2-ylmethyl)-1,2,3,4-tetrahydroquinolin-4-amine], the EC50 was above 40 µM in the data set “in vitro [1]”, 26.1 µM in data set [2] (setting [6]), above 40 µM in data set [3] and above 40 µM in the data set “in vitro [5]”. Moreover, the “mSTC-1 GLP1 Sec %Stim@2 μM” value in data set [4] amounted to 0%. In addition, the “mSTC-1 GLP1 Sec %Stim@20 μM” value in data set [4] was found to be 49%.

As to `COc1ccc2c(c1)[C@@H](NCc1nccs1)[C@H](C)[C@@H](C(C)C)N2` [Compound 8o, (2R,3R,4S)-2-Isopropyl-6-methoxy-3-methyl-N-(thiazol-2-ylmethyl)-1,2,3,4-tetrahydroquinolin-4-amine], the EC50 is above 40 µM in the data set “in vitro [1]”, 16.9 µM in data set [2] (setting [6]), above 40 µM in data set [3] and above 40 µM in the data set “in vitro [5]”. Also, in data set [4], the “mSTC-1 GLP1 Sec %Stim@2 μM” value was 0%. The “mSTC-1 GLP1 Sec %Stim@20 μM” value in data set [4] turned out to be 61%.

For the compound `COc1ccc2c(c1)[C@@H](N(Cc1nccs1)Cc1nccs1)[C@H](C)[C@@H](C(C)C)N2` [Compound 8p, (2R,3R,4S)-2-Isopropyl-6-methoxy-3-methyl-N,N-bis(thiazol-2-ylmethyl)-1,2,3,4-tetrahydroquinolin-4-amine], the EC50 in the data set “in vitro [1]” was above 40 µM; in data set [2] (setting [6]), 21.9 µM; in data set [3] it was above 40 µM; in “in vitro [5]”, above 40 µM. The “mSTC-1 GLP1 Sec %Stim@2 μM” value in data set [4] is given as 0%. Further, in data set [4], the “mSTC-1 GLP1 Sec %Stim@20 μM” value is 80%.

With `CC[C@H]1Nc2ccc(NC(C)=O)cc2[C@@H](NS(C)(=O)=O)[C@@H]1C` [Compound 8q, N-((2R,3R,4S)-2-Ethyl-3-methyl-4-(methylsulfonamido)-1,2,3,4-tetrahydroquinolin-6-yl)acetamide], in data set [4], the “mSTC-1 GLP1 Sec %Stim@2 μM” value is recorded as 0% and the “mSTC-1 GLP1 Sec %Stim@20 μM” value worked out at 18%.

With `C[C@@H]1[C@@H](c2ccccc2)Nc2ccc(-c3ccccc3)cc2[C@H]1NC(=O)OCc1ccccc1` [Compound 9, Benzyl (2S,3R,4S)-3-methyl-2,6-diphenyl-1,2,3,4-tetrahydroquinolin-4-ylcarbamate], the EC50 was above 40 µM in the data set “in vitro [1]”, 2.2 µM in data set [2] (setting [6]), above 40 µM in data set [3] and above 40 µM in the data set “in vitro [5]”. In addition, the “mSTC-1 GLP1 Sec %Stim@2 μM” value in data set [4] was determined as 82%. In data set [4], the “mSTC-1 GLP1 Sec %Stim@20 μM” value was 99%.

The record behind these values is article PMC8837726 (Chirality, 2021).
